For test [1], the target named is T1, Carbonic anhydrase (Candida albicans (strain SC5314 / ATCC MYA-2876) (Yeast), UniProt Q5AJ71).
T1 sequence (Q5AJ71 whole entry): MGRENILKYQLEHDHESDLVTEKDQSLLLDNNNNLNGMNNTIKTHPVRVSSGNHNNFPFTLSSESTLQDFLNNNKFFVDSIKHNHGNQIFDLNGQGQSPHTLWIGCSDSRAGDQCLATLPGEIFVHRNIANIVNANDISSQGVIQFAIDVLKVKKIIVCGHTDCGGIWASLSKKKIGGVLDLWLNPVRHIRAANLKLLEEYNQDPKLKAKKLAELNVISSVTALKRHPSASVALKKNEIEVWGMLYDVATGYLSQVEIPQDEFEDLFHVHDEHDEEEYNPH
The experiment in a line: Inhibition of Candida albicans carbonic anhydrase overexpressed in Escherichia coli BL21 (DE3) by CO2 hydration stopped-flow assay.

Test [2] deals with T2, Carbonic anhydrase (Saccharomyces cerevisiae S288c, UniProt P53615).
T2 sequence (P53615 whole entry): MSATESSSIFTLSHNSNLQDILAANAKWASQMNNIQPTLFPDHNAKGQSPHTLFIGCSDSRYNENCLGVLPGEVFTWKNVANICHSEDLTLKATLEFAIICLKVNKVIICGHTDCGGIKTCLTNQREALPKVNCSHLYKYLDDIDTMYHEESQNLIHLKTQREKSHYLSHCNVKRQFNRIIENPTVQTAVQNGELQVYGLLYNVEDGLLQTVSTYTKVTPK
The experiment in a line: Inhibition of Saccharomyces cerevisiae carbonic anhydrase overexpressed in Escherichia coli BL21 (DE3) by CO2 hydration stopped-flow assay.

Test [3] has as its target T2, Carbonic anhydrase. The test can be described thus: Inhibition of Saccharomyces cerevisiae carbonic anhydrase by stopped-flow CO2 hydration assay.

On to `NS(N)(=O)=O` [SULFAMIDE], for which the Ki in test [1] came to 300 µM; in test [2], 8.7 µM. In the same order, the values of `NS(=O)(=O)O` [SULFAMATE] are 700 µM and 840 µM. The corresponding values for `OB(O)c1ccccc1` [PHENYLBORONIC ACID] are 30900 µM and 38200 µM. `CCOc1ccc2nc(S(N)(=O)=O)sc2c1` [ETHOXZOLAMIDE] displayed a Ki in test [3] of 16 µM.

A word on the Ki: it is the equilibrium dissociation constant of an inhibitor or competing ligand from its target.

For the origin of these results see ChEMBL document CHEMBL1152192, “Carbonic anhydrase inhibitors. Inhibition of the beta-class enzyme from the yeast Saccharomyces cerevisiae with anions” (Bioorg Med Chem Lett, 2008).
